Source: patent US10047112B2, “Fluorescent labeled inhibitors” (priority 2014, dated 2018)
Read-outs that look alike come from different tables or passages of the source.

Legend:
[1] = tested on: M. tb H37Rv-GFP; assay: microbe, parasite or virus in culture; format: cell-based; conditions: Mycobacterium tuberculosis, 120 h, read-out: Extracellular growth IC50
[2] = tested on: M. tb H37Rv-GFP; assay: microbe, parasite or virus in culture; format: cell-based; conditions: Mycobacterium tuberculosis, RAW264.7, 120 h, read-out: Intracellular macrophage growth IC50
[3] = in vitro; conditions: mouse

SMILES	IC50 [1] [µM]	IC50 [2] [µM]	CC50 [3] [µM]
CO[C@H]1/C=C/O[C@@]2(C)Oc3c(C)c(O)c4c(O)c(c(/C=N/N5CCN(C)CC5)c(O)c4c3C2=O)NC(=O)/C(C)=C\C=C\[C@H](C)[C@H](O)[C@@H](C)[C@@H](O)[C@@H](C)[C@H](OC(C)=O)[C@@H]1C [Rifampin]	0.01	2.9	24
NNC(=O)c1ccncc1 [Isoniazid]	1.2	1.2	> 150
CCc1cc(C(N)=S)ccn1 [Ethionamide]	6	6	120
